From ChEMBL document CHEMBL1140482, “A novel class of Hsp90 inhibitors isolated by structure-based virtual screening” (Bioorg Med Chem Lett, 2007)

How the values were obtained:
[1] = Inhibition of yeast Hsp90 ATPase expressed in Escherichia coli; design: species or system Saccharomyces cerevisiae
MCF7 = assay: Growth inhibition of human MCF7 cells after days by SRB assay; type: functional

SMILES | IC50 [1] | GI50 (MCF7)
COc1cc(/C=C/c2nc3ccccc3c(=O)n2-c2ccccc2O)ccc1O | 2.3 µM | 9.6 µM
COc1ccc(-n2c(/C=C/c3cccc(OC)c3O)nc3ccccc3c2=O)cc1 | 31.8 µM | 25.4 µM
O=C(O)c1ccc(-n2c(/C=C/c3ccccc3O)nc3ccccc3c2=O)cc1 | 20 µM | 27.5 µM
COC1=C2C[C@@H](C)C[C@H](OC)[C@H](O)[C@@H](C)/C=C(\C)[C@H](OC(N)=O)[C@@H](OC)/C=C\C=C(/C)C(=O)NC(=CC1=O)C2=O [GELDANAMYCIN] | 22 µM | 35.6 µM
